The nature of assay [1]: Nav 1.7 or Nav 1.5 IWQ In Vitro Assay: HEK 293 Cells stably transfected with either Nav 1.7 or Nav 1.5 were recorded in population patch-clamp mode with the IonWorks® Quattro automated electrophysiology system in accordance with the manufacturer's specifications (Molecular Devices, LLC, Sunnyvale, Calif.). Sodium channel currents were measured in response to a train of depolarizations that induced successively greater inactivation.Cells were held at −110 mV for three seconds (Nav 1.7) or half a second (Nav 1.5) from a holding voltage of −15 mV, then put through a series of 26 pulses of 150 msec duration to −20 mV at a frequency of 5 Hz. Cells were then left unclamped for a period of 3 to 8 minutes while a single concentration of test compound was added. Cells were then reclamped and put through the same voltage protocol. Current at the end of the 26th pulse to −20 mV was subtracted from the peak current evoked by the 26th pulse to −20 mV to correct for leak current. Percent block was calculated for each concentration in duplicate, and IC50 curves were fitted to percent block as a function of concentration. The settings on record: HEK293.

Assay [2] is described as follows: Nav 1.7 In Vitro PX Assay: HEK 293 cells stably transfected with human Nav1.7 were recorded in whole cell voltage clamp mode with the PatchXpress automated electrophysiology system (Molecular Devices, LLC, Sunnyvale, Calif.). Compound effects were measured on a partially inactivated state of the sodium channel. Cells were clamped to a holding potential yielding 20 to 50% inactivation. To elicit sodium current, channels were activated by pulsing to −10 mV for 20 msec. This voltage protocol was repeated at a rate of 0.1 Hz throughout the experiment. A single concentration of test compound was applied to cells for a duration of 3 minutes. Peak sodium current was measured at the end of the compound addition period to determine percent inhibition. Three to five cells were tested per concentration, and IC50 curves were fitted to percent inhibition as a function of concentration. The settings on record: HEK293.

For orientation: IC50 means the point on the concentration scale where inhibition reaches its midpoint.

Consider `COc1cc(C#CC2CCCC2)c(Cl)cc1-n1c(=O)ccc2cc(S(=O)(=O)Nc3ccon3)ccc21`, for which the IC50 in assay [1] was 10 nM; in assay [2], 18.6 nM.
Taken in the same sequence, the figures for `COc1cc(C#CC2CCCC2)c(F)cc1-n1c(=O)ccc2cc(S(=O)(=O)Nc3ccon3)ccc21` were 4.53 nM and 17.3 nM.
As for `COc1cc(C#C[C@H]2C[C@@H]2C(F)(F)F)c(F)cc1-n1c(=O)ccc2cc(S(=O)(=O)Nc3ccon3)ccc21`, 210 nM corresponded to half-maximal inhibition in assay [2] (IC50).
`COc1cc(C#CC2(C(F)(F)F)CC2)c(F)cc1-n1c(=O)ccc2cc(S(=O)(=O)Nc3ccon3)ccc21`: the IC50 in assay [1] was 8 nM.
With `COc1cc(C#C[C@@H]2C[C@@H]2C(F)(F)F)c(F)cc1-n1c(=O)ccc2cc(S(=O)(=O)Nc3ccon3)ccc21`, the results for the IC50 in assay [1] and in assay [2] were 5.5 nM and 139 nM, respectively.
Taken in the same sequence, the figures for `COc1cc(C#CC2(OCC(F)(F)F)CCCC2)c(F)cc1-n1c(=O)ccc2cc(S(=O)(=O)Nc3ccon3)ccc21` were 9.73 nM and 33.8 nM.

(Values after ChEMBL document CHEMBL5727835, “Alkynyl dihydroquinoline sulfonamide compounds” (2020).)
